Measurements: patent US9415046B2, “Compositions and methods for inhibiting inflammation from and rejection of biomaterials and other methods” (YALE UNIVERSITY, priority 2009, dated 2016)
“Also recorded” adds a separate entry of the source.

Tests used:
Format in all cases: in vivo
wild-type mice [1] = assay: APAP (acetaminophen) induced liver inflammation, liver injury and mortality; details: by down regulation of pro-inflammatory cytokines
Method: APAP (Sigma, Mo.) solution was made fresh for each experiment in PBS at 20 mg/ml and heated in a water bath to 55° C. to dissolve. APAP was dosed at 500 mg/kg and injected I.P after 15 hrs of starvation. Animals were euthanized by ketamine/xylazine injection at 12 hours for collection of serum, isolation of liver lymphocytes or collection of liver tissue for histology, or they were observed every four hours for 72 hours until they reached criteria for euthanasia (lack of response to stimuli or lack of righting reflex). FIGS. 3A and B show less hemorrhage and cell death in the livers of mice lacking TLR9 compared to wild-type and FIGS. 3C and D show a similar affect of TLR7. […] The data was generated by a single ip injection of APAP at a dose of 500 mg/kg. Data in Figures A to D was generated 12 hours after APAP and E and F is over a 3 day period.
Data was generated 12 hours after injection of APAP. […] The data was generated over 72 hours (3 days). […] Data was generated from 23 hours after injection of APAP.

C57BL/6 mice = assay: Foreign body reaction to 150 micron polystyrene beads injected into the abdominal cavity; details: 24 hours, FIG. 2
Method: (§1) Two models of the foreign body reaction were tested. In the first model, injection of 150 micron polystyrene beads into the abdominal cavity of C57BL/6 was followed by analysis of cellular infiltrate 24 hours later. In the second model, implantation of a 6 mm disc of silicone subcutaneously was followed by analysis of the foreign body reaction about one month later. The above two models were performed on mice on normal drinking water or with aspirin (60 mg/ml). […] The experiment evidenced that the cellular infiltrate at 24 hours was comprised principally of immune cells (neutrophils and macrophages).

wild-type mice [2] = assay: Foreign body reaction to subcutaneously implanted 6 mm silicone disc; details: silicone implant, one month, aspirin 60 mg/ml in drinking water, P<0.05 compared to no ASA, FIG. 7
Method: as §1, with “macrophages). […] A 6 mm disc of silicone was implanted subcutaneously in experimental mice (see above), followed by analysis of the foreign body reaction around one month later. The mice were placed on normal drinking water or water with aspirin at a concentration of 60 mg/ml. […] Wild-type mice were implanted with a silicone capsule on the side of the muscle and on the side of the skin. The mice were either given regular drinking water or drinking water containing 60 mg/ml aspirin. After one month, the mice were then analyzed to determine if there was an impact on the foreign body reaction which occurred as a consequence of implanting the silicone capsulate.” for “macrophages).”

Q: For `CC(=O)Oc1ccccc1C(=O)O` [aspirin, acetylsalicylic acid], which “effect on acetaminophen-induced liver injury” value (wild-type mice [1]) is on record?
A: protective effect

Q: And the “foreign body reaction to polystyrene beads (number of cells in cellular infiltrate)” value (C57BL/6 mice; continuous aspirin in drinking water (60 mg/ml))?
A: substantially diminished; also recorded: significantly reduced

Q: What about the “composition of the cellular infiltrate (neutrophils and macrophages)” value (C57BL/6 mice; continuous aspirin) of the same molecule?
A: not significantly altered

Q: And the “thickness of the foreign body reaction capsule on the side of the muscle and on the side of the skin” value (wild-type mice [2])?
A: significant reduction
